# Measurements as given in patent publication US20240158370A1, “CK1 alpha AND DUAL CK1 alpha / GSPT1 DEGRADING COMPOUNDS” (Innovo Therapeutics, Inc., priority 2022, published 2024).
# Columns and labels:
# [1] = molecular target: T1, CK1α (Homo sapiens, UniProt P48729+Q96SW2); experiment: HiBiT degradation assay, CK1α, Procedure A; type: cell-based; settings: six hours incubation
# T1 construct: CSNK1A1-HiBit KI HEK293(LgBit) Cells; host or cells: HEK293(LgBit) knock-in cells
# Summary of the method: (§1)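 Cells in DMEM + 10% FBS were treated with compound in a ten-point dose response from 10 μM to 0.005 μM (0.1% DMSO) for six hours at 37° C. Lysis with Nano-Glo HiBiT detection reagent followed, with luminescence read. DC50 and Ymin came from a 4-parameter fit.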
# [2] = molecular target: GSPT1 (Homo sapiens, UniProt P15170+Q96SW2); experiment: HiBiT degradation assay, GSPT1, Procedure A; type: cell-based; design: HiBit-GSPT1 KI HEK293(LgBit) Cells; host or cells: HEK293(LgBit) knock-in cells; settings: six hours incubation
# GSPT1, sequence (P15170 whole entry): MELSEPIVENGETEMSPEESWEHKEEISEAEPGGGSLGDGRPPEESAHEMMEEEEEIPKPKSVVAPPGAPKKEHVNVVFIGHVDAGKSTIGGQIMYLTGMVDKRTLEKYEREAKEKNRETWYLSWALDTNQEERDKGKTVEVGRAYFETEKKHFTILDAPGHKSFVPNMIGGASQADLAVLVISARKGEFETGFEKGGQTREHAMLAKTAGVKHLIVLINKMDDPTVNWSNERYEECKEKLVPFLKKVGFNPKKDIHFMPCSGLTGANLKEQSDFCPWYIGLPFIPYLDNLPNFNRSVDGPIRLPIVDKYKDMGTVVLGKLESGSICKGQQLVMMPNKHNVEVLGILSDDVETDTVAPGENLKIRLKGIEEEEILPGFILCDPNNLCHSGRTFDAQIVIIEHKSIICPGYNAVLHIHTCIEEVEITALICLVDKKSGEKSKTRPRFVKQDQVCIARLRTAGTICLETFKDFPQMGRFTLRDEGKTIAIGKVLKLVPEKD
# GSPT1, sequence (Q96SW2 whole entry): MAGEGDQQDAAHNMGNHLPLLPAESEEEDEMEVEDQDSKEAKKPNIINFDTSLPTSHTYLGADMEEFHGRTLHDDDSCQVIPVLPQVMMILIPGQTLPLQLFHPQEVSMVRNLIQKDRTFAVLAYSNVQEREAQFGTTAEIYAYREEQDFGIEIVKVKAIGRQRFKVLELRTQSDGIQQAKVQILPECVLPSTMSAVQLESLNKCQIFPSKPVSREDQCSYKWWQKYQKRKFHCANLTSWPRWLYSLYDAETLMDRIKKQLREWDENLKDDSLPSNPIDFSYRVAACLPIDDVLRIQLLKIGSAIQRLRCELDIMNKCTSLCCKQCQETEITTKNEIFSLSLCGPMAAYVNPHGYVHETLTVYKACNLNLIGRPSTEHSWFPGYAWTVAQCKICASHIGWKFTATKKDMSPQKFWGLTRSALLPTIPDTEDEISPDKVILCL
# GSPT1, sequence (Q16531 whole entry partner): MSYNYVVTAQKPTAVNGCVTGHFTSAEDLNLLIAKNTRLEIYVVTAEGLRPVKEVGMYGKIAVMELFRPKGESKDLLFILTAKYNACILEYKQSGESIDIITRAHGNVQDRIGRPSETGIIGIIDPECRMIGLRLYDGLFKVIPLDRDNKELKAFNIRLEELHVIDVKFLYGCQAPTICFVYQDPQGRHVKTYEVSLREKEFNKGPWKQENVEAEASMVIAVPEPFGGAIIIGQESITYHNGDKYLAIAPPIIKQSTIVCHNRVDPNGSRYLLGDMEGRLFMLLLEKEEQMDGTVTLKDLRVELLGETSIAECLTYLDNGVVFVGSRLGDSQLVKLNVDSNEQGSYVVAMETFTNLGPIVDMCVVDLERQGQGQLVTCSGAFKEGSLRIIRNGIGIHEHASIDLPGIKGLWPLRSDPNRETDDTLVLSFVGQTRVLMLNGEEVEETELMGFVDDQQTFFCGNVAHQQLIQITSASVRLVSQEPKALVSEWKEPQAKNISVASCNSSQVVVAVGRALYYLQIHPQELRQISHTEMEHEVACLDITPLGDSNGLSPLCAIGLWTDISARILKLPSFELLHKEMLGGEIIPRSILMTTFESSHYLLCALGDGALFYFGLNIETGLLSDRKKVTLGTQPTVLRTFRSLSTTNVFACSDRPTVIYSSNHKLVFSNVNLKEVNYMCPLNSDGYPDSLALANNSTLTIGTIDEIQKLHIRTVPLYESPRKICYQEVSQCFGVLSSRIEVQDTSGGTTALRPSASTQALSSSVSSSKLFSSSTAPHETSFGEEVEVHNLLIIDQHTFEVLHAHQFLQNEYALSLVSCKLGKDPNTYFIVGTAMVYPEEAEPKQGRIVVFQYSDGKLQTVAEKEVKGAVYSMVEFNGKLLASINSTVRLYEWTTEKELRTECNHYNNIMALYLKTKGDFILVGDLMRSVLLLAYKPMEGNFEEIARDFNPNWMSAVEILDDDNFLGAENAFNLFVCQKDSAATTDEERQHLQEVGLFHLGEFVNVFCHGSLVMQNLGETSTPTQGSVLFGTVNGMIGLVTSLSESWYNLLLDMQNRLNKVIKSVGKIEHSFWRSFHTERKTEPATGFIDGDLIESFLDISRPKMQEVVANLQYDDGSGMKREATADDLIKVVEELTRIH
# Summary of the method: as §1
# T1 sequence (P48729 whole entry): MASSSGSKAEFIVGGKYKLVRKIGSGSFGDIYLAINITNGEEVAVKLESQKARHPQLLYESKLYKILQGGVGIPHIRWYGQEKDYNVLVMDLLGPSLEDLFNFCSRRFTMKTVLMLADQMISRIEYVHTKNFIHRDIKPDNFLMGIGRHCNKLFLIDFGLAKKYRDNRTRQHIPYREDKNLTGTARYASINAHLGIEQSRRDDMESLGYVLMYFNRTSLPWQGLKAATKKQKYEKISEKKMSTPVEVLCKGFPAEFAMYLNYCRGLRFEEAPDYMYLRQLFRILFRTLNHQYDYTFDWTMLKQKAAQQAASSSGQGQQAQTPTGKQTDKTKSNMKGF
# T1 sequence (Q96SW2 whole entry): as the sequence (Q96SW2 whole entry) above
# T1 sequence (Q16531 whole entry partner): as the sequence (Q16531 whole entry partner) above
SMILES,CK1α Ymin [1],DC50 [1] [nM],DC50 [2] [nM],GSPT1 Ymin [2]
Cn1ncc(-c2ccc3c(c2)CN(C2CCC(=O)NC2=O)C3=O)c1-c1ccc(Cl)s1 (stereo not shown) [Example 68],D (D = >10- 25% remaining),< 25,≥ 25,F (F = >75-100% remaining)
COc1cccc(-c2c(-c3ccc4c(c3)CN(C3CCC(=O)NC3=O)C4=O)cnn2C)c1 (stereo not shown) [Example 69],E (E = >25-75% remaining),< 25,≥ 25,F (F = >75-100% remaining)
COc1ccc(-c2c(-c3ccc4c(c3)CN(C3CCC(=O)NC3=O)C4=O)cnn2C)cc1 (stereo not shown) [Example 70],C (C = 0-10% remaining),< 25,≥ 25,F (F = >75-100% remaining)
Cn1ncc(-c2ccc3c(c2)CN(C2CCC(=O)NC2=O)C3=O)c1-c1ccccc1C(F)(F)F (stereo not shown) [Example 71],F (F = >75-100% remaining),< 25,≥ 25,F (F = >75-100% remaining)
Cn1ncc(-c2ccc3c(c2)CN(C2CCC(=O)NC2=O)C3=O)c1-c1cccc(F)c1F (stereo not shown) [Example 73],E (E = >25-75% remaining),< 25,≥ 25,F (F = >75-100% remaining)
Cc1ccccc1-c1c(-c2ccc3c(c2)CN(C2CCC(=O)NC2=O)C3=O)cnn1C (stereo not shown) [Example 74],E (E = >25-75% remaining),< 25,≥ 25,F (F = >75-100% remaining)
Cn1ncc(-c2ccc3c(c2)CN(C2CCC(=O)NC2=O)C3=O)c1-c1ccc(Cl)c(Cl)c1 (stereo not shown) [Example 75],E (E = >25-75% remaining),≥ 25,≥ 25,F (F = >75-100% remaining)
Cc1cccc(-c2c(-c3ccc4c(c3)CN(C3CCC(=O)NC3=O)C4=O)cnn2C)c1 (stereo not shown) [Example 76],D (D = >10- 25% remaining),< 25,≥ 25,F (F = >75-100% remaining)
Cn1ncc(-c2ccc3c(c2)CN(C2CCC(=O)NC2=O)C3=O)c1-c1cc(F)ccc1F (stereo not shown) [Example 77],E (E = >25-75% remaining),< 25,≥ 25,F (F = >75-100% remaining)
COc1cc(-c2c(-c3ccc4c(c3)CN(C3CCC(=O)NC3=O)C4=O)cnn2C)ccc1C (stereo not shown) [Example 78],E (E = >25-75% remaining),< 25,≥ 25,F (F = >75-100% remaining)
Cn1ncc(-c2ccc3c(c2)CN(C2CCC(=O)NC2=O)C3=O)c1-c1ccc(Cl)cc1F (stereo not shown) [Example 79],E (E = >25-75% remaining),< 25,≥ 25,F (F = >75-100% remaining)
Cc1ccc(-c2c(-c3ccc4c(c3)CN(C3CCC(=O)NC3=O)C4=O)cnn2C)cc1Cl (stereo not shown) [Example 80],E (E = >25-75% remaining),< 25,≥ 25,F (F = >75-100% remaining)
Cn1ncc(-c2ccc3c(c2)CN(C2CCC(=O)NC2=O)C3=O)c1-c1ccc(OCc2ccccc2)c(Cl)c1 (stereo not shown) [Example 81],E (E = >25-75% remaining),≥ 25,≥ 25,F (F = >75-100% remaining)
COc1ccc(Cl)c(-c2c(-c3ccc4c(c3)CN(C3CCC(=O)NC3=O)C4=O)cnn2C)c1 (stereo not shown) [Example 82],E (E = >25-75% remaining),< 25,≥ 25,F (F = >75-100% remaining)
Cc1ccc(-c2c(-c3ccc4c(c3)CN(C3CCC(=O)NC3=O)C4=O)cnn2C)c(C)c1 (stereo not shown) [Example 83],E (E = >25-75% remaining),< 25,≥ 25,F (F = >75-100% remaining)
CC(C)c1ccc(-c2c(-c3ccc4c(c3)CN(C3CCC(=O)NC3=O)C4=O)cnn2C)cc1 (stereo not shown) [Example 84],E (E = >25-75% remaining),< 25,≥ 25,F (F = >75-100% remaining)

SMILES,CK1α Ymin [1],DC50 [1] [nM],DC50 [2] [nM],GSPT1 Ymin [2]
Cc1ccc(-c2c(-c3ccc4c(c3)CN(C3CCC(=O)NC3=O)C4=O)cnn2C)c(Cl)c1 (stereo not shown) [Example 85],E (E = >25-75% remaining),< 25,≥ 25,F (F = >75-100% remaining)
Cc1ccc(Cl)c(-c2c(-c3ccc4c(c3)CN(C3CCC(=O)NC3=O)C4=O)cnn2C)c1 (stereo not shown) [Example 86],E (E = >25-75% remaining),< 25,≥ 25,F (F = >75-100% remaining)
Cc1ccc(C)c(-c2c(-c3ccc4c(c3)CN(C3CCC(=O)NC3=O)C4=O)cnn2C)c1 (stereo not shown) [Example 87],E (E = >25-75% remaining),< 25,≥ 25,F (F = >75-100% remaining)
Cn1ncc(-c2ccc3c(c2)CN(C2CCC(=O)NC2=O)C3=O)c1-c1ccc(F)cc1Cl (stereo not shown) [Example 88],E (E = >25-75% remaining),< 25,≥ 25,F (F = >75-100% remaining)
Cc1ccc(F)c(-c2c(-c3ccc4c(c3)CN(C3CCC(=O)NC3=O)C4=O)cnn2C)c1 (stereo not shown) [Example 89],E (E = >25-75% remaining),< 25,≥ 25,F (F = >75-100% remaining)
Cn1ncc(-c2ccc3c(c2)CN(C2CCC(=O)NC2=O)C3=O)c1-c1ccc(Cl)c(F)c1 (stereo not shown) [Example 90],E (E = >25-75% remaining),< 25,≥ 25,F (F = >75-100% remaining)
Cc1cc(-c2c(-c3ccc4c(c3)CN(C3CCC(=O)NC3=O)C4=O)cnn2C)ccc1F (stereo not shown) [Example 91],E (E = >25-75% remaining),< 25,≥ 25,E (E = >25-75% remaining)
CC(C)Cc1ccc(-c2c(-c3ccc4c(c3)CN(C3CCC(=O)NC3=O)C4=O)cnn2C)cc1 (stereo not shown) [Example 92],E (E = >25-75% remaining),≥ 25,≥ 25,F (F = >75-100% remaining)
Cn1ncc(-c2ccc3c(c2)CN(C2CCC(=O)NC2=O)C3=O)c1-c1cc(Cl)ccc1F (stereo not shown) [Example 93],E (E = >25-75% remaining),≥ 25,≥ 25,F (F = >75-100% remaining)
Cc1ccc(-c2c(-c3ccc4c(c3)CN(C3CCC(=O)NC3=O)C4=O)cnn2C)c(F)c1 (stereo not shown) [Example 94],D (D = >10- 25% remaining),< 25,≥ 25,F (F = >75-100% remaining)
Cn1ncc(-c2ccc3c(c2)CN(C2CCC(=O)NC2=O)C3=O)c1-c1ccsc1 (stereo not shown) [Example 95],D (D = >10- 25% remaining),< 25,≥ 25,F (F = >75-100% remaining)
COc1ccccc1-c1c(-c2ccc3c(c2)CN(C2CCC(=O)NC2=O)C3=O)cnn1C (stereo not shown) [Example 96],E (E = >25-75% remaining),≥ 25,≥ 25,F (F = >75-100% remaining)
Cn1ncc(-c2ccc3c(c2)CN(C2CCC(=O)NC2=O)C3=O)c1-c1ccc2c(c1)CCO2 (stereo not shown) [Example 97],D (D = >10- 25% remaining),< 25,≥ 25,F (F = >75-100% remaining)
Cn1ncc(-c2ccc3c(c2)CN(C2CCC(=O)NC2=O)C3=O)c1-c1ccc(C(=O)NC2CCCC2)cc1 (stereo not shown) [Example 98],E (E = >25-75% remaining),≥ 25,≥ 25,F (F = >75-100% remaining)
Cc1cc(-c2c(-c3ccc4c(c3)CN(C3CCC(=O)NC3=O)C4=O)cnn2C)ccc1Cl (stereo not shown) [Example 99],E (E = >25-75% remaining),< 25,≥ 25,F (F = >75-100% remaining)
